What was measured:
Assay in all cases: relative viability (nuclei count vs DMSO), 5 days (fraction); higher = more cells survive
Linsitinib + Trametinib = compound: C[C@]1(O)C[C@@H](c2nc(-c3ccc4ccc(-c5ccccc5)nc4c3)c3c(N)nccn32)C1 [Linsitinib] + CC(=O)Nc1cccc(-n2c(=O)n(C3CC3)c(=O)c3c(Nc4ccc(I)cc4F)n(C)c(=O)c(C)c32)c1 [Trametinib] (partner 0.02 µM)
Summary of the method: (§1)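 Dosing by pin tool came one day after lung cancer cell lines were seeded in 1536-well plates, using either one drug or a fixed anchor-drug dose plus five library-drug doses (not always all listed) in √10 steps. After 5 days, nuclei were counted on 4× images. Relative viability is treated-well nuclei count divided by vehicle-well nuclei count, and values are medians of duplicate plates.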

Ispinesib + AZD7762 = compound: Cc1ccc(C(=O)N(CCCN)[C@@H](c2nc3cc(Cl)ccc3c(=O)n2Cc2ccccc2)C(C)C)cc1 [Ispinesib] + NC(=O)Nc1cc(-c2cccc(F)c2)sc1C(=O)N[C@H]1CCCNC1 [AZD7762] (partner 0.2 µM)
Summary of the method: as §1

Ispinesib + OSI-027 = compound: Cc1ccc(C(=O)N(CCCN)[C@@H](c2nc3cc(Cl)ccc3c(=O)n2Cc2ccccc2)C(C)C)cc1 [Ispinesib] + COc1cccc2cc(-c3nc([C@H]4CC[C@H](C(=O)O)CC4)n4ncnc(N)c34)[nH]c12 [OSI-027] (partner 0.5 µM)
Summary of the method: as §1

Ispinesib + Trametinib = compound: Cc1ccc(C(=O)N(CCCN)[C@@H](c2nc3cc(Cl)ccc3c(=O)n2Cc2ccccc2)C(C)C)cc1 [Ispinesib] + CC(=O)Nc1cccc(-n2c(=O)n(C3CC3)c(=O)c3c(Nc4ccc(I)cc4F)n(C)c(=O)c(C)c32)c1 [Trametinib] (partner 0.02 µM)
Summary of the method: as §1

Row | Cell Line | relative viability (Linsitinib + Trametinib; first compound 0.01 µM) | relative viability (Linsitinib + Trametinib; first compound 0.03162 µM) | relative viability (Linsitinib + Trametinib; first compound 0.1 µM) | relative viability (Linsitinib + Trametinib; first compound 0.3162 µM) | relative viability (Linsitinib + Trametinib; first compound 1 µM) | relative viability (Ispinesib + AZD7762; first compound 0.001 µM) | relative viability (Ispinesib + AZD7762; first compound 0.003162 µM) | relative viability (Ispinesib + AZD7762; first compound 0.01 µM) | relative viability (Ispinesib + AZD7762; first compound 0.03162 µM) | relative viability (Ispinesib + AZD7762; first compound 0.1 µM) | relative viability (Ispinesib + OSI-027; first compound 0.001 µM) | relative viability (Ispinesib + OSI-027; first compound 0.003162 µM) | relative viability (Ispinesib + OSI-027; first compound 0.01 µM) | relative viability (Ispinesib + OSI-027; first compound 0.03162 µM) | relative viability (Ispinesib + OSI-027; first compound 0.1 µM) | relative viability (Ispinesib + Trametinib; first compound 0.001 µM) | relative viability (Ispinesib + Trametinib; first compound 0.003162 µM) | relative viability (Ispinesib + Trametinib; first compound 0.01 µM) | relative viability (Ispinesib + Trametinib; first compound 0.03162 µM) | relative viability (Ispinesib + Trametinib; first compound 0.1 µM)
1 | LXF-289 | 0.641 | 0.535 | 0.674 | 0.519 | 0.665 | 1.09 | 1.12 | 1.22 | 0.788 | 0.119 | 0.813 | 0.834 | 0.806 | 0.593 | 0.0721 | 0.667 | 0.729 | 0.762 | 0.629 | 0.606
2 | PC-3 [JPC-3] | 0.691 | 0.766 | 0.668 | 0.591 | 0.545 | 0.937 | 0.9 | 0.798 | 0.542 | 0.368 | 0.703 | 0.841 | 0.851 | 0.627 | 0.431 | 0.717 | 0.83 | 0.689 | 0.664 | 0.375
3 | HCC-366 | 0.369 | 0.381 | 0.402 | 0.317 | 0.202 | 0.267 | 0.29 | 0.204 | 0.346 | 0.0475 | 0.944 | 1.01 | 1.33 | 0.204 | 0.0402 | 0.386 | 0.428 | 0.403 | 0.411 | 0.0793
4 | NCI-H2342 | 0.788 | 0.886 | 0.791 | 0.777 | 0.729 | 0.609 | 0.432 | 0.528 | 0.411 | 0.373 | 0.631 | 0.741 | 0.593 | 0.48 | 0.456 | 0.892 | 0.819 | 0.896 | 0.797 | 0.722
5 | NCI-H1651 | 0.827 | 0.861 | 0.884 | 0.777 | 0.824 | 0.531 | 0.561 | 0.524 | 0.441 | 0.408 | 0.837 | 0.696 | 0.848 | 0.684 | 0.137 | 0.836 | 0.896 | 0.887 | 0.882 | 0.831
6 | SW 900 | 0.741 | 0.986 | 0.762 | 0.72 | 0.674 | 0.635 | 0.492 | 0.648 | 0.565 | 0.259 | 0.751 | 0.617 | 0.553 | 0.345 | 0.225 | 0.914 | 0.947 | 1.02 | 0.924 | 0.326
7 | NCI-H1355 | 0.424 | 0.353 | 0.352 | 0.323 | 0.246 | 0.783 | 0.847 | 0.805 | 0.448 | 0.284 | 0.352 | 0.442 | 0.427 | 0.316 | 0.261 | 0.469 | 0.456 | 0.41 | 0.414 | 0.288
8 | LC-2-ad | 0.906 | 0.718 | 0.942 | 0.864 | 0.827 | 0.942 | 0.941 | 1.02 | 0.425 | 0.322 | 0.808 | 0.855 | 0.973 | 0.352 | 0.264 | 0.934 | 0.944 | 0.92 | 0.9 | 0.474
9 | NCI-H1944 | 0.395 | 0.465 | 0.381 | 0.356 | 0.346 | 0.443 | 0.483 | 0.482 | 0.32 | 0.189 | 0.398 | 0.449 | 0.426 | 0.338 | 0.17 | 0.431 | 0.408 | 0.36 | 0.383 | 0.334
10 | HCC-827 | 0.526 | 0.616 | 0.522 |  | 0.602 | 0.229 | 0.21 | 0.146 | 0.198 | 0.197 | 0.653 | 0.801 | 0.887 | 0.664 | 0.437 | 0.595 | 0.516 | 0.542 | 0.57 | 0.59
11 | NCI-H3122 | 0.259 | 0.213 | 0.253 |  | 0.232 | 0.996 | 0.982 | 1.15 | 0.835 | 0.141 | 1.07 | 1.38 | 1.06 | 0.218 | 0.14 | 0.284 | 0.252 | 0.246 | 0.316 | 0.162
12 | NCI-H2170 | 0.948 | 0.906 | 0.849 |  | 0.89 | 0.897 | 0.88 | 0.909 | 0.225 | 0.17 | 0.743 | 0.644 | 0.75 | 0.354 | 0.191 | 1.02 | 0.933 | 1.09 | 0.684 | 0.488
13 | NCI-H1793 | 0.414 | 0.479 | 0.457 | 0.36 | 0.395 | 0.476 | 0.494 | 0.352 | 0.412 | 0.295 | 0.275 | 0.343 | 0.294 | 0.22 | 0.16 | 0.47 | 0.433 | 0.412 | 0.421 | 0.244
14 | BEN | 1.12 | 1.02 | 1.03 | 0.869 | 1.11 | 0.745 | 0.85 | 0.678 | 0.472 | 0.347 | 0.312 | 0.306 | 0.341 | 0.38 | 0.202 | 1.07 | 1.17 | 1.15 | 0.916 | 0.677
15 | NCI-H647 | 0.478 | 0.509 | 0.436 | 0.338 | 0.351 | 0.662 | 0.564 | 0.451 | 0.185 | 0.172 | 0.76 | 0.696 | 0.766 | 0.235 | 0.107 | 0.536 | 0.508 | 0.434 | 0.209 | 0.133
16 | PC-14 | 0.684 | 0.681 | 0.618 | 0.699 | 0.575 | 0.44 | 0.484 | 0.388 | 0.142 | 0.111 | 0.983 | 0.791 | 0.256 | 0.0319 | 0.0859 | 0.788 | 0.707 | 0.282 | 0.0652 | 0.101

— the supplement of paper PMC10307832
